Measured values as given in US7625950B2, “Amino-propanol derivatives as sphingosine-1-phosphate receptor modulator” (Novartis AG, priority 2003, dated 2009).
Where a name gives a salt, the structure may show the parent alone.

Tests used:
[1] = tested on: peripheral blood lymphocytes; experiment: Blood lymphocyte depletion; assay type: in vivo; conditions: rats, p.o.
Description: B. In Vivo: Blood Lymphocyte Depletion
A compound of formula I or the vehicle is administered orally by gavage to rats. Tail blood for hematological monitoring is obtained on day −1 to give the baseline individual values, and at 2, 6, 24, 48 and 72 hours after application.

[2] = target: T1, human S1P receptor EDG-3 (S1P3) (Homo sapiens, UniProt Q99500); experiment: S1P receptor profiling, GTP[γ-35S] binding SPA, S1P3; assay type: biochemical; conditions: for S1P3 mode of action (Agon. = agonist): GTP[γ-35S] binding SPA; for EC50: GTP[γ-35S] binding to membrane protein of transfected CHO or RH7777 cells, SPA
T1 construct: expressed in transfected cells
Description: (§1) Sphingosine-1-Phosphate (S1P) Receptor Profiling
(§2) Agonist activities of compounds are tested on the human SIP receptors EDG-1 (S1P1), EDG-3 (S1P3), EDG-5 (S1P2), EDG-6 (S1P4) and EDG-8 (S1P5). […] The assay technology used is SPA (scintillation proximity based assay). Briefly, DMSO dissolved compounds are serially diluted and added to SPA-bead (Amersham-Pharmacia) immobilised SIP receptor expressing membrane protein (10-20 μg/well) in the presence of 50 mM Hepes, 100 mM NaCl, 10 mM MgCl2, 10 μM GDP, 0.1% fat free BSA and 0.2 nM GTP [γ-^35S] (1200 Ci/mmol). After incubation in 96 well microtiterplates at RT for 120 min, unbound GTP [γ-^35S] is separated by a centrifugation step. Luminescence of SPA beads triggered by membrane bound GTP [γ-^35S] is quantified with a TOP count plate reader (Packard). EC50s are calculated using standard curve fitting software. In this assay, the compounds of formula I have a binding affinity to S1P1 receptor <50 nM.

[3] = target: T2, human S1P receptor EDG-8 (S1P5) (Homo sapiens, UniProt Q9H228); experiment: S1P receptor profiling, GTP[γ-35S] binding SPA, S1P5; assay type: biochemical; conditions: for S1P5 mode of action (Agon. = agonist): GTP[γ-35S] binding SPA; for EC50: GTP[γ-35S] binding to membrane protein of transfected CHO or RH7777 cells, SPA
T2 construct: expressed in transfected cells
Description: as §1, §2

[4] = target: T3, human S1P receptor EDG-1 (S1P1) (Homo sapiens, UniProt P21453); experiment: S1P receptor profiling, GTP[γ-35S] binding SPA, S1P1; assay type: biochemical; conditions: for S1P1 mode of action (Agon. = agonist): GTP[γ-35S] binding SPA; for EC50: GTP[γ-35S] binding to membrane protein of transfected CHO or RH7777 cells, SPA
T3 construct: expressed in transfected cells
Description: as §1, §2

[5] = target: T4, human S1P receptor EDG-6 (S1P4) (Homo sapiens, UniProt O95977); experiment: S1P receptor profiling, GTP[γ-35S] binding SPA, S1P4; assay type: biochemical; conditions: for EC50: GTP[γ-35S] binding to membrane protein of transfected CHO or RH7777 cells, SPA; for S1P4 mode of action (Agon. = agonist): GTP[γ-35S] binding SPA
T4 construct: expressed in transfected cells
T4 sequence (O95977 1-384): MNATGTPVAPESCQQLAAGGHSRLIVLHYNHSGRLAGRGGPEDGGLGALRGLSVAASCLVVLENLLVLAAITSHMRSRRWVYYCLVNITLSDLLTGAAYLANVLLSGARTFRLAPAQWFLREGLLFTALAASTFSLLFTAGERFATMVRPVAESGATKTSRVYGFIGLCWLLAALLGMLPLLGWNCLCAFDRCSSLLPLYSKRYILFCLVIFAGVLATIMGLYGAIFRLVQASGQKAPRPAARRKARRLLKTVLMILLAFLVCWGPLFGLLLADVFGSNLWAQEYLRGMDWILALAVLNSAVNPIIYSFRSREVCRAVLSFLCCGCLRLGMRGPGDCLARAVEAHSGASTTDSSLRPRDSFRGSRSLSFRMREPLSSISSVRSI
Description: as §1, §2

T1 sequence (Q99500 whole entry): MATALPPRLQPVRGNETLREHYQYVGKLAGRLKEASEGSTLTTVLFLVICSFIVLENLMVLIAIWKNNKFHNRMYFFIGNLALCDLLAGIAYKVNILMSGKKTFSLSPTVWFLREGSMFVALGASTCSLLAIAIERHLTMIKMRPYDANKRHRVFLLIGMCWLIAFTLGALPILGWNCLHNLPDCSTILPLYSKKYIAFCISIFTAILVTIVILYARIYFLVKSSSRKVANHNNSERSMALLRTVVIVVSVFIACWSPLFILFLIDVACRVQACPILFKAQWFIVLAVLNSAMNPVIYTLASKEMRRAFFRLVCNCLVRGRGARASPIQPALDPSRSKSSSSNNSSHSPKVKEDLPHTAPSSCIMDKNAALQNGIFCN
T2 sequence (Q9H228 whole entry): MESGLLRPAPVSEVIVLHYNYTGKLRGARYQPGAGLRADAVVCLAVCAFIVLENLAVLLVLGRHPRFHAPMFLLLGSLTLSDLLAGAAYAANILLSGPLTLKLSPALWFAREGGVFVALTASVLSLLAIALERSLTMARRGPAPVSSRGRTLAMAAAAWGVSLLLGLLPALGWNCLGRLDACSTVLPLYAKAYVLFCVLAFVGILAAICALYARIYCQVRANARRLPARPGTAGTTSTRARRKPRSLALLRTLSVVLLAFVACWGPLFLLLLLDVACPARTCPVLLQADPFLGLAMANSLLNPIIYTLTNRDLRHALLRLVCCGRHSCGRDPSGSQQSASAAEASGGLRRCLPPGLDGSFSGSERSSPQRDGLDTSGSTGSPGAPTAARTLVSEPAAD
T3 sequence (P21453 whole entry): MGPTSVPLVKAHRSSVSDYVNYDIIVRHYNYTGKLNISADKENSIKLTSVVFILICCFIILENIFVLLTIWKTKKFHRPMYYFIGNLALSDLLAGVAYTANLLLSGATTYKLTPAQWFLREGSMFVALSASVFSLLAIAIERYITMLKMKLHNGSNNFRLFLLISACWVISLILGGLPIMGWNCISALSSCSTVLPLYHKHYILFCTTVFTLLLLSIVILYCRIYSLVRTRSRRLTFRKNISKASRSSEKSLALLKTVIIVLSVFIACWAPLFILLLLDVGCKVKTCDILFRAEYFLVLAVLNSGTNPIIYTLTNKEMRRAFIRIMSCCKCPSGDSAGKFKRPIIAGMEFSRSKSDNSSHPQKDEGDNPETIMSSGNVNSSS

SMILES: C[C@](N)(CO)CCc1ccc(OCCOc2ccc(Cl)cc2)cc1 [Example 1, (R)-2-Amino-4-{4-[2-(4-chloro-phenoxy)-ethoxy]-phenyl}-2-methyl-butan-1-ol Hydrochloride]
- dose giving depletion of peripheral blood lymphocytes by more than 50% ([1]; after 6 h): 0.03 mg/kg
- dose giving depletion of peripheral blood lymphocytes by more than 50% ([1]; after 24 h): 0.02 mg/kg

SMILES: C[C@@](N)(CCc1ccc(OCCOc2ccc(Cl)cc2)cc1)COP(=O)(O)O [Example 36, (R)-Mono-(2-amino-4-{4-[2-(4-chloro-phenoxy)-ethoxy]-phenyl}-2-methyl-butyl) phosphate]
- S1P3 mode of action (Agon. = agonist) [2]: Agon.
- EC50 [2]: 15 nM
- S1P5 mode of action (Agon. = agonist) [3]: Agon.
- EC50 [3]: 14 nM
- S1P1 mode of action (Agon. = agonist) [4]: Agon.
- EC50 [4]: 0.6 nM
- EC50 [5]: > 1000 nM

SMILES: C[C@@](N)(CCc1ccc(OCCOc2ccccc2)cc1)COP(=O)(O)O [Example 38]
- EC50 [2]: > 1000 nM
- S1P5 mode of action (Agon. = agonist) [3]: Agon.
- EC50 [3]: 11.7 nM
- S1P1 mode of action (Agon. = agonist) [4]: Agon.
- EC50 [4]: 8.6 nM
- S1P4 mode of action (Agon. = agonist) [5]: Agon.
- EC50 [5]: 28 nM

SMILES: C[C@@](N)(CCc1ccc(OCCOc2cccc(F)c2F)cc1)COP(=O)(O)O [Example 42]
- EC50 [2]: > 1000 nM
- S1P5 mode of action (Agon. = agonist) [3]: Agon.
- EC50 [3]: 6.3 nM
- S1P1 mode of action (Agon. = agonist) [4]: Agon.
- EC50 [4]: 5.5 nM
- S1P4 mode of action (Agon. = agonist) [5]: Agon.
- EC50 [5]: 8.2 nM

SMILES: COc1cc(CC[C@@](C)(N)COP(=O)(O)O)ccc1OCCOc1ccccc1 [Example 43]
- S1P3 mode of action (Agon. = agonist) [2]: Agon.
- EC50 [2]: 340 nM
- S1P5 mode of action (Agon. = agonist) [3]: Agon.
- EC50 [3]: 0.5 nM
- S1P1 mode of action (Agon. = agonist) [4]: Agon.
- EC50 [4]: 8 nM
- S1P4 mode of action (Agon. = agonist) [5]: Agon.
- EC50 [5]: 43 nM

SMILES: COc1ccc(Br)cc1OCCCOc1ccc(CC[C@@](C)(N)CO)cc1 [Example 53, (R)-2-Amino-4-{4-[3-(5-bromo-2-methoxy-phenoxy)-propoxy]-phenyl}-2-methyl-butan-1-ol Hydrochloride]
- dose giving depletion of peripheral blood lymphocytes by more than 50% ([1]; after 6 h): 0.1 mg/kg
- dose giving depletion of peripheral blood lymphocytes by more than 50% ([1]; after 48 h): 0.5 mg/kg

SMILES: COc1ccc(Br)cc1OCCCOc1ccc(CCC(N)(CO)COP(=O)(O)O)cc1 (centres unmarked) [Example 56]
- S1P3 mode of action (Agon. = agonist) [2]: Agon.
- EC50 [2]: > 10000 nM
- S1P5 mode of action (Agon. = agonist) [3]: Agon
- EC50 [3]: 16.5 nM
- S1P1 mode of action (Agon. = agonist) [4]: Agon.
- EC50 [4]: 8.5 nM
- S1P4 mode of action (Agon. = agonist) [5]: Agon.
- EC50 [5]: 1.6 nM
